Results published in patent US20100196290A1, “COMPOSITIONS COMPRISING BETULONIC ACID” (Valtion teknillinen tutkimuskeskus, priority 2006, published 2010).

Legend:
bacteria = assay: Antibacterial activity, overall statement on the examples; assay type: cell-based; details: concentration of 1 μg/ml
Description: Erythromycin was used as the control.

Caco-2 cells = assay: Cytotoxicity tests, viability of Caco-2 cells (LDH, WST-1 and ATP methods); assay type: cell-based, human; details: 500 μM, exposure 24 hours
Description: Caco-2 cells (cell line used as a model for human intestine) were introduced in a 96 well plate in an amount of 35 000 cells (for LDH method), 45 000 cells (for WST-1 method), or 25 000 cells (for ATP method) per well. After cultivation of 24 hours, the cells were exposed to the compounds being tested for 24 hours by adding said compounds to the culture medium to give a concentration of 500 μM (as stock solutions in DMSO).
The influence of the compounds on the viability of the cells was measured by three different methods. Polymyxin B was used as the control. […] The amount of LDH in the sample due to exposure was quantified by means of an enzymatic reaction using the INT (iodonitrotetrazolium) colour reagent wherein the coloured reaction product formed was determined photometrically at 490 nm. In the WST-1 method, the metabolic activity of the cells after exposure was measured using the WST-1 reagent. Metabolic activity of a cell results in the generation of a coloured product from the reagent, said product being then used to evaluate the viability of the cells by photometric measurements (absorbance at 440 nm). In the ATP method, the amount of ATP within cells decreasing rapidly due to cellular damage was measured. In the method, ATP was luminometrically quantified by means of the ATP dependent luciferase-luciferin reaction. […]

SMILES | antibacterial activity (bacteria) | cytotoxicity (Caco-2 cells)
C=C(C)[C@@H]1CC[C@]2(C(=O)O)CC[C@]3(C)[C@H](CC[C@@H]4[C@@]5(C)CCC(=O)C(C)(C)[C@@H]5CC[C@]43C)[C@@H]12 [Yhdiste 5, betulonic acid] | considerable antibacterial activity | low cytotoxicity
C=C(C)[C@@H]1CC[C@]2(COC(=O)c3ccccc3NC(C)=O)CC[C@]3(C)C(CCC4[C@@]5(C)CC[C@H](O)C(C)(C)C5CC[C@]43C)C12 (stereo partly drawn) [Yhdiste 29, 28-N-acetylanthranilic acid ester of betulin] | considerable antibacterial activity | –
